Test results published in ChEMBL document CHEMBL3045387, “Synthesis and Fungicidal Activity of New 1, 3, 2-Oxazaphospholidine 2-Sulfides” (1994).

Experiments:
Format in all cases: functional
Conditions in all cases: 96 h, read-out: GI
Corticium [1] = assay: Antimicrobial activity against Corticium sp. assessed as inhibition of mycelial growth on potato dextrose agar at 100 ppm at 27 degC measured after 4 days
Pythium [2] = assay: Antimicrobial activity against Pythium sp. assessed as inhibition of mycelial growth on potato dextrose agar at 100 ppm at 27 degC measured after 4 days
Corticium [3] = assay: Antimicrobial activity against Corticium sp. assessed as inhibition of mycelial growth on potato dextrose agar at 1000 ppm at 27 degC measured after 4 days
Pythium [4] = assay: Antimicrobial activity against Pythium sp. assessed as inhibition of mycelial growth on potato dextrose agar at 1000 ppm at 27 degC measured after 4 days

| Structure (SMILES) | inhibition of growth at 100 ppm (Corticium [1]) | inhibition of growth at 100 ppm (Pythium [2]) | inhibition of growth at 1000 ppm (Corticium [3]) | inhibition of growth at 1000 ppm (Pythium [4]) |
| --- | --- | --- | --- | --- |
| Cc1ccc(C(C)C)c(OP2(=S)N[C@@H](C(C)C)CO2)c1 (stereo partly drawn) | 18.7% | 29.8% | – | – |
| Cc1ccc(C(C)C)cc1 [P-CYMENE] | 14.4% | 0% | 13.6% | 0.2% |
| CC(C)=CCC/C(C)=C/COP1(=S)N[C@@H](Cc2ccccc2)CO1 (stereo partly drawn) | 28.5% | 4% | 60.4% | 16.9% |
| Cc1ccc(C(C)C)c(OP2(=S)N[C@@H](C)CO2)c1 (stereo partly drawn) | 0% | 0% | – | – |
| Cc1ccc(C(C)C)c(OP2(=S)N[C@@H](CC(C)C)CO2)c1 (stereo partly drawn) | 36.8% | 19.8% | 77.1% | 36.1% |
| CC[C@H](C)[C@H]1COP(=S)(OC/C=C(\C)CCC=C(C)C)N1 (stereo partly drawn) | 0% | 0% | – | – |
| C=CCc1ccc(OP2(=S)N[C@@H]([C@@H](C)CC)CO2)c(OC)c1 (stereo partly drawn) | 25.3% | 41.7% | – | – |
| Cc1ccc(C(C)C)c(O)c1 [THYMOL] | 71% | 93% | 100% | 100% |
| CC(C)=CCCC(C)CCOP1(=S)N[C@@H](Cc2ccccc2)CO1 (stereo partly drawn) | 21.1% | 1.6% | 66.8% | 30.8% |
| Cc1ccc(C(C)C)c(OP2(=S)N[C@@H](Cc3ccccc3)CO2)c1 (stereo partly drawn) | 33.8% | 19.8% | 41% | 46% |
| C=CC(C)(O)CCC=C(C)C (stereo not drawn) [LINALOOL] | 46.9% | 21.3% | 93.9% | 67.4% |
| CC(=O)CCc1ccccc1 [BENZYLACETONE] | 30.5% | 24.5% | 100% | 100% |
| CC(C)=CCCC(C)CCOP1(=S)N[C@@H](C(C)C)CO1 (stereo partly drawn) | 42.6% | 87.3% | – | – |
| CC1(C)C2CC=C(CO)C1C2 (stereo not drawn) [MYRTENOL] | 56% | 41% | 100% | 100% |
| C=C1CCC2CC1C2(C)C (stereo not drawn) [BETA-PINENE] | 1.2% | 0% | 16.3% | 2.2% |
| CC1=CCC(O)(C(C)C)CC1 (stereo not drawn) [TERPINEOL] | 0% | 7.1% | 98.3% | 98.3% |
| CC(C)=CCCC(C)CCO (stereo not drawn) [CITRONELLOL] | 23.9% | 68.9% | 100% | 100% |
| Cc1ccc(OP2(=S)N[C@@H](Cc3ccccc3)CO2)c(C(C)C)c1 (stereo partly drawn) | 15.3% | 9.4% | 36% | 58.2% |
| Cc1ccc(OP2(=S)N[C@@H](C)CO2)c(C(C)C)c1 (stereo partly drawn) | 31.7% | 10.8% | – | – |
| Cc1ccc(OP2(=S)N[C@@H](CC(C)C)CO2)c(C(C)C)c1 (stereo partly drawn) | 14.6% | 11.7% | 64.3% | 58.2% |
